Assay results as given in patent US12065442B2, “Tropomyosin receptor kinase (TRK) degradation compounds and methods of use” (Cullgen (Shanghai), Inc., priority 2018, dated 2024).
Like-named read-outs stand apart in the source and are kept apart here.

What was measured:
[1] = tested on: KM12 cells; experiment: Cell viability assay (CellTiter-Glo) in KM12 cells; assay type: cell-based; details: Homo sapiens, 72 h, KM12 cell viability, CellTiter-Glo, 3 days, read-out: IC50
[2] = molecular target: TPM3-TRKA fusion protein (Homo sapiens, UniProt P04629+P06753+Q96SW2); experiment: Immunoblotting of TPM3-TRKA in KM12 subcutaneous xenograft tumors; assay type: in vivo, Athymic nude mice; design: The resulted chimeric proteins always retain the kinase domain of TRK proteins; TPM3 (N-terminal fusion partner, natural gene fusion); from tissue; host or cells: KM12 subcutaneous xenograft tumors in athymic nude mice; details: intraperitoneal or oral administration, eight hours after administration (FIG. 10)
Experimental: In addition to cultured cells, athymic nude mice bearing KM12 subcutaneous xenograft tumors at the right flank were intraperitoneally treated with 10, 20, or 50 mg/kg CPD-053, CPD-027, or CPD-060. Four hours after drug administration, animals were sacrificed for immunoblotting of TPM3-TPKA in homogenized xenograft tumor masses. The label “a” or “b” represents two different samples of the same xenograft tumor.
Athymic nude mice bearing KM12 subcutaneous xenograft tumors at the right flank were intraperitoneally treated with 10, 20, or 50 mg/kg CPD-053, CPD-027, or CPD-060, as indicated in FIG. 3. Four hours after drug administration, animals were sacrificed for immunoblotting of TPM3-TPKA in homogenized xenograft tumor chunks. The label “a” or “b” represents two different chunks of the same xenograft tumor.
Athymic nude mice bearing KM12 subcutaneous xenograft tumors at the right flank were intraperitoneally or orally treated with bivalent compounds at indicated dose. Eight hours after drug administration, animals were sacrificed for immunoblotting of TPM3-TPKA in homogenized xenograft tumor samples.
Cultured cells were washed with cold PBS once and lysed in cold RIPA buffer supplemented with protease inhibitors and phosphatase inhibitors (Beyotime Biotechnology). The solutions were then incubated at 4° C. for 30 minutes with gentle agitation to fully lyse cells. For tumor tissues, tumors were cut into small pieces, milled with cold RIPA buffer using a mechanical homogenizer and lysed for 1 hour at 4° C. Cell lysates were centrifuged at 13,000 rpm for 10 minutes at 4° C. and pellets were discarded. Total protein concentrations in the lysates were determined by BCA assays (Beyotime Biotechnology). Cell lysates were mixed with Laemmli loading buffer to 1× and heated at 99° C. for 5 min. Proteins were resolved on SDS-PAGE and visualized by chemiluminescence. Images were taken by a ChemiDoc MP Imaging system (Bio-Rad). Protein bands were quantitated using the software provided by Bio-Rad.
All animal experiments were performed under protocols approved by the Institutional Animal Care and Use Committee (IACUC) of Cullgen. Athymic nude mice (male, 5-weeks old) received 5 million KM12 cells subcutaneously inoculated at the right flank site. Ten days following inoculation, tumors were approximately 500 mm3 in size. Tumor-bearing mice were treated intraperitoneally with vehicle or bivalent compounds at indicated doses. Tumor sizes and body weight of mice were measured every 2 days. In addition, immunoblotting assays were employed to assess the levels of TRKA fusion proteins in xenograft tumors around 500 mm^3 in size following drug administration. At indicated hours after drug administration, selected mice were sacrificed, tumors were resected. Small chunks of tumors were homogenized for immunoblotting of TPM3-TPKA and other proteins as indicated.

Chain of TPM3-TRKA fusion protein (P06753+P04629 fused): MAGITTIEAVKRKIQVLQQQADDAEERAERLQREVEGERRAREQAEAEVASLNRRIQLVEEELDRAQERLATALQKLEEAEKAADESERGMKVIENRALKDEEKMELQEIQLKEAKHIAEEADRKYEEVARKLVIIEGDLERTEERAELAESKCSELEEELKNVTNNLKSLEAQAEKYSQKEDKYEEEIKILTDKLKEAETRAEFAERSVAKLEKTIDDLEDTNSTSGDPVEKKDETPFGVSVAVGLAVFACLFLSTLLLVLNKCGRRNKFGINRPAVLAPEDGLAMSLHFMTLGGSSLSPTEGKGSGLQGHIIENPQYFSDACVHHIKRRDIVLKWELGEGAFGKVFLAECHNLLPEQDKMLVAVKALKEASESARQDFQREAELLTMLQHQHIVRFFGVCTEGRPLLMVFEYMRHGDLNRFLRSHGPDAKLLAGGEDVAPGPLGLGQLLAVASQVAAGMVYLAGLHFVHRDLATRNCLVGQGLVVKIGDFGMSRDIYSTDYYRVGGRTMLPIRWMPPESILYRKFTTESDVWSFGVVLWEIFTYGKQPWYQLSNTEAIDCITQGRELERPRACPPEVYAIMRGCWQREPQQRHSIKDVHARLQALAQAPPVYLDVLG
Chain of TPM3-TRKA fusion protein (Q96SW2 whole entry, the tested form may be a part): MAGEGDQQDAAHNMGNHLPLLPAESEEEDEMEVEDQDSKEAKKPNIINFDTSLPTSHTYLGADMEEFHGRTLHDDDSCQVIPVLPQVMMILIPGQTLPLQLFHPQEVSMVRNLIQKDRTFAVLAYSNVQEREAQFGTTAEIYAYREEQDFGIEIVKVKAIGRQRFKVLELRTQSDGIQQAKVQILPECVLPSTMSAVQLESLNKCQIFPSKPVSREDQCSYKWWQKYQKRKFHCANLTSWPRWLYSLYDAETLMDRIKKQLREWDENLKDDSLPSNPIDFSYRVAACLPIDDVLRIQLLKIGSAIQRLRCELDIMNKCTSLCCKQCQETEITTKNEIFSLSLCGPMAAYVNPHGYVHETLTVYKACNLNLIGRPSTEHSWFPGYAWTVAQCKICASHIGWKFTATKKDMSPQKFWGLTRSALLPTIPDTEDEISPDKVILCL
Chain of TPM3-TRKA fusion protein (Q16531 whole entry partner, the tested form may be a part): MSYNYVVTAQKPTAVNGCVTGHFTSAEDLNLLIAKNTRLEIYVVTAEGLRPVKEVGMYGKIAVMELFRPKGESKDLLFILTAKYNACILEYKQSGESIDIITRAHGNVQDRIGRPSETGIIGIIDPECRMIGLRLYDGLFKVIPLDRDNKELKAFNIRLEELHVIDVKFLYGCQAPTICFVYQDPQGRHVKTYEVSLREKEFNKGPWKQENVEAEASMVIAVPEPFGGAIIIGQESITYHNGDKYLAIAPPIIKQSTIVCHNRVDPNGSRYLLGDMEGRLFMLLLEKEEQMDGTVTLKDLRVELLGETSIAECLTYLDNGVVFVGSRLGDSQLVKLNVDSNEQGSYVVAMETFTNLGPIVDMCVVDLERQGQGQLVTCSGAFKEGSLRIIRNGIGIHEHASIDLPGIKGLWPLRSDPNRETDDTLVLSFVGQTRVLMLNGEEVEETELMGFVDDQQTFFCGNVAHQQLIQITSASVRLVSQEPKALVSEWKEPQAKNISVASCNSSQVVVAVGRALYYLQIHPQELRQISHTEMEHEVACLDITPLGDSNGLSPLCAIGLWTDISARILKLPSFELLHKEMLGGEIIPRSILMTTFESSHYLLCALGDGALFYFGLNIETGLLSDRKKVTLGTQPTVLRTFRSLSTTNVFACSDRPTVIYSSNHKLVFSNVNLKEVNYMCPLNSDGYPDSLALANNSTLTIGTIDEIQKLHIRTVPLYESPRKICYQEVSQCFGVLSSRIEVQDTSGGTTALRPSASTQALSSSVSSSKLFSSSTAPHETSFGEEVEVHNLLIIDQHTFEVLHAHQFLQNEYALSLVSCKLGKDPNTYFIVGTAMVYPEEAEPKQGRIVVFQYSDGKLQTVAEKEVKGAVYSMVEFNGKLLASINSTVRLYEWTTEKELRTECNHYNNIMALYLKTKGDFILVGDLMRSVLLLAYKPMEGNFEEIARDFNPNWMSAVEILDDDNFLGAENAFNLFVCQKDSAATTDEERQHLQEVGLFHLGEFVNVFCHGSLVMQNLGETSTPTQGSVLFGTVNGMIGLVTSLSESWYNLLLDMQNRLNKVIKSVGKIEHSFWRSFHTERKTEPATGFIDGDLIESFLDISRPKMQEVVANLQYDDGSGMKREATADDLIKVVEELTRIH

SMILES	IC50 ([1]; Table 3)	TPM3-TRKA degradation in KM12 subcutaneous tumors [2]	IC50 ([1]; Table 2)	further results
O=C1CCC(N2C(=O)c3ccc(NCCCN4CCN(c5cccc(-c6cnc7ccc(N8CCC[C@@H]8c8cccc(F)c8)nn67)n5)CC4)cc3C2=O)C(=O)N1 (stereo partly drawn) [TR-171, 2-(2,6-Dioxopiperidin-3-yl)-5-((3-(4-(6-(6-((R)-2-(3-fluorophenyl)pyrrolidin-1-yl)imidazo[1,2-b]pyridazin-3-yl)pyridin-2-yl)piperazin-1-yl)propyl)amino)isoindoline-1,3-dione]	5.2 nM	exhibited the activities to induce TPM3-TRKA degradation		
O=C1CCC(N2C(=O)c3ccc(OCCN4CCN(c5cccc(-c6cnc7ccc(N8CCC[C@@H]8c8cccc(F)c8)nn67)n5)CC4)cc3C2=O)C(=O)N1 (stereo partly drawn) [TR-173, 2-(2,6-dioxopiperidin-3-yl)-5-(2-(4-(6-(6-((R)-2-(3-fluorophenyl)pyrrolidin-1-yl)imidazo[1,2-b]pyridazin-3-yl)pyridin-2-yl)piperazin-1-yl)ethoxy)isoindoline-1,3-dione]	8.9 nM	exhibited the activities to induce TPM3-TRKA degradation		
O=C1CCC(N2C(=O)c3ccc(CCCN4CCN(c5cccc(-c6cnc7ccc(N8CCC[C@@H]8c8cccc(F)c8)nn67)n5)CC4)cc3C2=O)C(=O)N1 (stereo partly drawn) [TR-172, 2-(2,6-dioxopiperidin-3-yl)-5-(3-(4-(6-(6-((R)-2-(3-fluorophenyl)pyrrolidin-1-yl)imidazo[1,2-b]pyridazin-3-yl)pyridin-2-yl)piperazin-1-yl)propyl)isoindoline-1,3-dione]	2 nM	exhibited the activities to induce TPM3-TRKA degradation		
O=C(CN1CCN(c2ccc(C(=O)Nc3n[nH]c4ccc(Cc5cc(F)cc(F)c5)cc34)c(NC3CCOCC3)c2)CC1)NCCOCCOCCOCCOCCOCCNc1ccc2c(c1)C(=O)N(C1CCC(=O)NC1=O)C2=O (centres unmarked) [TR-166, N-(5-(3,5-Difluorobenzyl)-1H-indazol-3-yl)-4-(4-(20-((2-(2,6-dioxopiperidin-3-yl)-1,3-dioxoisoindolin-5-yl)amino)-2-oxo-6,9,12,15,18-pentaoxa-3-azaicosyl)piperazin-1-yl)-2-((tetrahydro-2H-pyran-4-yl)amino)benzamide]	4.4 nM			
O=C1CCC(N2C(=O)c3cccc(NCCCCCCC(=O)N4CCN(c5ccc(C(=O)Nc6n[nH]c7ccc(Cc8cc(F)cc(F)c8)cc67)c(NC6CCOCC6)c5)CC4)c3C2=O)C(=O)N1 (centres unmarked) [CPD-049, N-(5-(3,5-difluorobenzyl)-1H-indazol-3-yl)-4-(4-(7-((2-(2,6-dioxopiperidin-3-yl)-1,3-dioxoisoindolin-4-yl)amino)heptanoyl)piperazin-1-yl)-2-((tetrahydro-2H-pyran-4-yl)amino)benzamide]			73 nM	
O=C1CCC(N2Cc3ccc(C#CC(=O)N4CCN(c5cccc(-c6cnc7ccc(N8CCC[C@@H]8c8cccc(F)c8)nn67)n5)CC4)cc3C2=O)C(=O)N1 (stereo partly drawn) [TR-202, 3-(6-(3-(4-(6-(6-((R)-2-(3-fluorophenyl)pyrrolidin-1-yl)imidazo[1,2-b]pyridazin-3-yl)pyridin-2-yl)piperazin-1-yl)-3-oxoprop-1-yn-1-yl)-1-oxoisoindolin-2-yl)piperidine-2,6-dione]	4.3 nM			
O=C1CCC(N2C[C@H](c3cccc(C#CCN4CCN(c5cccc(-c6cnc7ccc(N8CCC[C@@H]8c8cccc(F)c8)nn67)n5)CC4)c3)OC2=O)C(=O)N1 (stereo partly drawn) [TR-223, 3-((S)-5-(3-(3-(4-(6-(6-((R)-2-(3-Fluorophenyl)pyrrolidin-1-yl)imidazo[1,2-b]pyridazin-3-yl)pyridin-2-yl)piperazin-1-yl)prop-1-yn-1-yl)phenyl)-2-oxooxazolidin-3-yl)piperidine-2,6-dione]				IC50 ([1]; Table 4): 11.3 nM
O=C1CCC(N2C(=O)c3cccc(NCCOCCOCCC(=O)N4CCN(c5ccc(C(=O)Nc6n[nH]c7ccc(Cc8cc(F)cc(F)c8)cc67)c(NC6CCOCC6)c5)CC4)c3C2=O)C(=O)N1 (centres unmarked) [CPD-032, N-(5-(3,5-Difluorobenzyl)-1H-indazol-3-yl)-4-(4-(3-(2-(2-((2-(2,6-dioxopiperidin-3-yl)-1,3-dioxoisoindolin-4-yl)amino)ethoxy)ethoxy)propanoyl)piperazin-1-yl)-2-((tetrahydro-2H-pyran-4-yl)amino)benzamide]			5.4 nM	
O=C(CN1CCN(c2ccc(C(=O)Nc3n[nH]c4ccc(Cc5cc(F)cc(F)c5)cc34)c(NC3CCOCC3)c2)CC1)NCCCCCCNc1cccc2c1C(=O)N(C1CCC(=O)NC1=O)C2=O (centres unmarked) [TR-147, N-(5-(3,5-Difluorobenzyl)-1H-indazol-3-yl)-4-(4-(2-((6-((2-(2,6-dioxopiperidin-3-yl)-1,3-dioxoisoindolin-4-yl)amino)hexyl)amino)-2-oxoethyl)piperazin-1-yl)-2-((tetrahydro-2H-pyran-4-yl)amino)benzamide]	6.4 nM			
O=C(CN1CCN(c2ccc(C(=O)Nc3n[nH]c4ccc(Cc5cc(F)cc(F)c5)cc34)c(NC3CCOCC3)c2)CC1)NCCOCCOCCNc1cccc2c1C(=O)N(C1CCC(=O)NC1=O)C2=O (centres unmarked) [TR-153, N-(5-(3,5-Difluorobenzyl)-1H-indazol-3-yl)-4-(4-(2-((2-(2-(2-((2-(2,6-dioxopiperidin-3-yl)-1,3-dioxoisoindolin-4-yl)amino)ethoxy)ethoxy)ethyl)amino)-2-oxoethyl)piperazin-1-yl)-2-((tetrahydro-2H-pyran-4-yl)amino)benzamide]	6.3 nM			
O=C1CCC(N2C(=O)c3ccc(NCCOCCOCCN4CCN(c5cccc(-c6cnc7ccc(N8CCC[C@H]8c8cccc(F)c8)nn67)n5)CC4)cc3C2=O)C(=O)N1 (stereo partly drawn) [TR-177, 2-(2,6-Dioxopiperidin-3-yl)-5-((2-(2-(2-(4-(6-(6-((S)-2-(3-fluorophenyl)pyrrolidin-1-yl)imidazo[1,2-b]pyridazin-3-yl)pyridin-2-yl)piperazin-1-yl)ethoxy)ethoxy)ethyl)amino)isoindoline-1,3-dione]	1.9 nM	exhibited the activities to induce TPM3-TRKA degradation		
O=C(CN1CCN(c2ccc(C(=O)Nc3n[nH]c4ccc(Cc5cc(F)cc(F)c5)cc34)c(NC3CCOCC3)c2)CC1)NCCOCCOCCOCCNc1cccc2c1C(=O)N(C1CCC(=O)NC1=O)C2=O (centres unmarked) [CPD-064, N-(5-(3,5-difluorobenzyl)-1H-indazol-3-yl)-4-(4-(14-((2-(2,6-dioxopiperidin-3-yl)-1,3-dioxoisoindolin-4-yl)amino)-2-oxo-6,9,12-trioxa-3-azatetradecyl)piperazin-1-yl)-2-((tetrahydro-2H-pyran-4-yl)amino)benzamide]			14.9 nM	
Cc1ncsc1-c1ccc(CNC(=O)[C@@H]2C[C@@H](O)CN2C(=O)[C@@H](NC(=O)COCCOCCOCC(=O)N2CCN(c3cccc(-c4cnc5ccc(N6CCC[C@@H]6c6cccc(F)c6)nn45)n3)CC2)C(C)(C)C)cc1 [CPD-011, (2S,4R)-1-((S)-2-(tert-butyl)-14-(4-(6-(6-((R)-2-(3-Fluorophenyl)pyrrolidin-1-yl)imidazo[1,2-b]pyridazin-3-yl)pyridin-2-yl)piperazin-1-yl)-4,14-dioxo-6,9,12-trioxa-3-azatetradecanoyl)-4-hydroxy-N-(4-(4-methylthiazol-5-yl)benzyl)pyrrolidine-2-carboxamide]			> 1000 nM	
